This is an account of results in patent US20240002416A1 (Rheinische-Friedrich-Wilhelms-Universität Bonn, priority 2020, published 2024).

What all share (type): cell-based
For assay [1], the target named is T1, human MRGPRX4-83L (Homo sapiens, UniProt Q96LA9).
T1 construct: host or cells: CHO β-arrestin cells
The assay is described as follows: β-arrestin assay (CHO β-arrestin ARMS1-ProLink 2 human MRGPRX4 83L). The conditions noted are these: Table 1; for IC50: inhibition of the effect of 2.6 μM B-16; for EC50: β-arrestin recruitment, CHO cells, MRGPRX4-83L, means of 3-4 experiments, read-out: EC50 ± SEM; for Emax: read-out: Emax. As to the method:
(§1) For β-arrestin recruitment assays, recombinant Chinese hamster ovary (CHO) cells expressing the human MRGPRX4 were used (DiscoverX/Eurofins) which allowed to measure β-galactosidase complementation upon β-arrestin recruitment. For calcium mobilization assays, recombinant astrocytes expressing MRGPX4-83L, or LN229 glioblastoma cells natively expressing the MRGPRX4-83S, were used.
(§2) The assays were performed as previously described for other rhodopsin-like GPCRs (Müller, C.E.; 8-Benzamidochromen-4-one-2-carboxylic acids: potent and selective agonists for the orphan G protein-coupled receptor GPR35. J. Med. Chem. 2013, 56:5182-97; Müller, C.E. Molecular Recognition of Agonists and Antagonists by the Nucleotide-Activated G Protein-Coupled P2Y2 Receptor. J. Med. Chem. 2017, 60:8425-8440).
On the technique in general: Arrestin recruitment assays detect the binding of arrestin to an activated receptor.

Assay [2] addresses T1, human MRGPRX4-83L. The assay is described as follows: Calcium assay (human MRGPRX4 83L), recombinant astrocytes. Particulars: for EC50: calcium mobilization, MRGPRX4-83L, read-out: EC50 ± SEM; for Emax: read-out: Emax. As to the method:
as §1, §2
In general terms: Calcium flux is commonly read through the fluorescence of an indicator in the cells.

Assay [3] has as its target T2, MRGPRX4-83S (Homo sapiens, UniProt Q96LA9, L83S). The assay is described as follows: Calcium assay (human glioblastoma LN229 cells expressing the MRGPRX4-83S). Set-up: LN229 glioblastoma cells natively expressing the MRGPRX4-83S; endogenous in cells; host or cells: LN229 human glioblastoma cells. Particulars: for EC50: calcium mobilization, LN229 cells, MRGPRX4-83S, read-out: EC50 ± SEM; for Emax: LN-229, efficacy based on 30 μM H-1 (set as 100%), read-out: Emax. The protocol: as §1, §2

The target in assay [4] is T2, MRGPRX4-83S. The assay is described as follows: β-arrestin assay (CHO β-arrestin human MRGPRX4-83S). On the set-up: host or cells: CHO β-arrestin cells. Particulars: for Emax: efficacy based on 100 nM B-16 (set as 100%), read-out: Emax; for EC50: β-arrestin recruitment, CHO cells, MRGPRX4-83S, read-out: EC50 ± SEM. As to the method:
as §1, §2

Setting [5] is: Table 1, efficacy based on maximal effect of 1 μM B-16 (set as 100%).
Where [6] appears, read: efficacy based on maximal effect of 100 nM B-16 (set as 100%).

T1 sequence (Q96LA9 whole entry): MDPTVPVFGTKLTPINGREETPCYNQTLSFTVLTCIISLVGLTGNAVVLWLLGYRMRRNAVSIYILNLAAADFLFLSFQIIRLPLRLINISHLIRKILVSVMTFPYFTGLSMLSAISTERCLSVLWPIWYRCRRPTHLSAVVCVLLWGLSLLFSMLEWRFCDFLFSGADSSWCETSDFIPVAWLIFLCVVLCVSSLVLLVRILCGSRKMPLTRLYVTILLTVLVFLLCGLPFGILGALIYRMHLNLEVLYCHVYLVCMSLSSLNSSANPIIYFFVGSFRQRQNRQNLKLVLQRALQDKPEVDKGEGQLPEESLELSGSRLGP
T2 sequence (Q96LA9 whole entry L83S): as the sequence (Q96LA9 whole entry) above, with L83S counted along it

As a reminder, the IC50 is the point on the concentration scale where inhibition reaches its midpoint. What is called EC50 is the concentration needed to bring the measured effect to its halfway point. With `C#CCn1c(=O)c2c(nc(-c3cccc(OC)c3)n2C)n(CCCOP(=O)(O)O)c1=O` [A-1, 3-(8-(3-Methoxyphenyl)-7-methyl-2,6-dioxo-1-(prop-2-yn-1-yl)-1,2,6,7-tetrahydro-3H-purin-3-yl)propyl dihydrogen phosphate, reference compound], the IC50 in assay [1] and in assay [2] was greater than 10 µM each time. Moreover, the concentration giving a half-maximal response (EC50) in assay [1], in assay [2] (Table 1) and in assay [3] (Table 2) was greater than 10 µM in each case.

As a reminder, the Emax is the greatest response seen or fitted, relative to the assay's reference. In assay [1], `C#CCn1c(=O)c2[nH]c(CCc3ccccc3)nc2n(CCCCP(=O)(O)O)c1=O` [B-1, (4-(2,6-Dioxo-8-phenethyl-1-(prop-2-yn-1-yl)-1,2,6,7-tetrahydro-3H-purin-3-yl)butyl)phosphonic acid] registered an IC50 greater than 10 µM. Further, the EC50 is greater than 10 µM in assay [1], 3.25 ± 0.61 µM in assay [2] (Table 1), 399 ± 115 nM in assay [4] (Table 2) and 0.134 ± 0.017 µM in assay [3] (Table 2). Further, the Emax in assay [2] (setting [5]) is 110%; in assay [4] (Table 2) it was 84%; in assay [3] (Table 2), 92%.

Consider `C#CCn1c(=O)c2[nH]c(CCc3cccc(OC)c3)nc2n(CCCCP(=O)(O)O)c1=O` [B-2, (4-(8-(3-Methoxyphenethyl)-2,6-dioxo-1-(prop-2-yn-1-yl)-1,2,6,7-tetrahydro-3H-purin-3-yl)butyl)phosphonic acid], for which the Emax in assay [1] (setting [6]) came to 91%; in assay [2] (setting [5]), 102%; in assay [4] (Table 2), 98%; in assay [3] (Table 2) it was 99%. The EC50 is 5.71 ± 1.23 µM in assay [1], 0.435 ± 0.078 µM in assay [2] (Table 1), 32 ± 11 nM in assay [4] (Table 2) and 0.0112 ± 0.0013 µM in assay [3] (Table 2).

Regarding `CCn1c(=O)c2[nH]c(CCc3cccc(OC)c3)nc2n(CCCCP(=O)(O)O)c1=O` [B-12, (4-(1-Ethyl-8-(3-methoxyphenethyl)-2,6-dioxo-1,2,6,7-tetrahydro-3H-purin-3-yl)butyl)phosphonic acid], in assay [1] (bracketed value ± spread in IC50 column, not defined, inhibition of 2.6 μM B-16), the “value in brackets beside IC50 >10” value is −27 ± 9. This molecule returned an IC50 in assay [1] greater than 10 µM. The EC50 was greater than 10 µM in assay [1], 3.8 ± 0.19 µM in assay [2] (Table 1), 1190 ± 50 nM in assay [4] (Table 2) and 0.214 ± 0.051 µM in assay [3] (Table 2). Moreover, the results for the Emax in assay [2] (setting [5]), in assay [4] (Table 2) and in assay [3] (Table 2) were 104%, 102% and 94%, respectively.

On to `COc1cccc(CCc2nc3c([nH]2)c(=O)n(CC2CCC2)c(=O)n3CCCCP(=O)(O)O)c1` [B-13, (4-(1-(Cyclobutylmethyl)-8-(3-methoxyphenethyl)-2,6-dioxo-1,2,6,7-tetrahydro-3H-purin-3-yl)butyl)phosphonic acid], for which the Emax in assay [1] (setting [6]) is 96%; in assay [2] (setting [5]), 94%; in assay [4] (Table 2), 93%; in assay [3] (Table 2), 91%. Besides, the half-maximal effective concentration (EC50) in assay [1] was determined as 48.3 ± 14.1 µM; in assay [2] (Table 1) it was 1.6 ± 0.46 µM; in assay [4] (Table 2), 68.9 ± 17 nM; in assay [3] (Table 2) it was 0.0599 ± 0.0107 µM.

Regarding `C#CCn1c(=O)c2c(nc(CCc3cccc(OC)c3)n2C)n(CCCCP(=O)(O)O)c1=O` [B-15, (4-(8-(3-Methoxyphenethyl)-7-methyl-2,6-dioxo-1-(prop-2-yn-1-yl)-1,2,6,7-tetrahydro-3H-purin-3-yl)butyl)phosphonic acid], the Emax in assay [1] (setting [6]) came to 141%; in assay [2] (setting [5]) it was 113%; in assay [4] (Table 2) it was 140%; in assay [3] (Table 2) it was 132%. Besides, the half-maximal effective concentration (EC50) in assay [1] came to 6.28 ± 1.38 µM; in assay [2] (Table 1), 0.333 ± 0.007 µM; in assay [4] (Table 2) it was 30 ± 5.8 nM; in assay [3] (Table 2) it was 0.0192 ± 0.0035 µM.

In assay [1] (setting [6]), `C#CCn1c(=O)c2c(nc(CCc3cccc(C(F)(F)F)c3)n2C)n(CCCCP(=O)(O)O)c1=O` [B-16, (4-(7-Methyl-2,6-dioxo-1-(prop-2-yn-1-yl)-8-(3-(trifluoromethyl)phenethyl)-1,2,6,7-tetrahydro-3H-purin-3-yl)butyl)phosphonic acid] returned an Emax at 0.1 µM of 100%. For the same molecule, the half-maximal effective concentration (EC50) was determined as 0.37 ± 0.05 µM in assay [1], 0.0324 ± 0.0056 µM in assay [2] (Table 1), 2.28 ± 0.16 nM in assay [4] (Table 2) and 0.00317 ± 0.0006 µM in assay [3] (Table 2). In addition, the maximal effect (Emax) at 1 µM in assay [2] (setting [5]) was 100%. Also, the maximum response (Emax) in assay [4] (Table 2) was determined as 100%; in assay [3] (Table 2), 137%.

As to `C#CCn1c(=O)c2c(nc(CCc3ccccc3Cl)n2C)n(CCCCP(=O)(O)O)c1=O` [B-17, (4-(8-(2-Chlorophenethyl)-7-methyl-2,6-dioxo-1-(prop-2-yn-1-yl)-1,2,6,7-tetrahydro-3H-purin-3-yl)butyl)phosphonic acid], the maximum response (Emax) in assay [1] (setting [6]) came out at 114%; in assay [2] (setting [5]), 109%. Besides, the results for the half-maximal effective concentration (EC50) in assay [1] and in assay [2] (Table 1) were 0.169 ± 0.06 µM and 0.00223 ± 0.00013 µM, respectively.

For the molecule `C#CCn1c(=O)c2c(nc(CCc3ccccc3Br)n2C)n(CCCCP(=O)(O)O)c1=O` [B-18, (4-(8-(2-Bromophenethyl)-7-methyl-2,6-dioxo-1-(prop-2-yn-1-yl)-1,2,6,7-tetrahydro-3H-purin-3-yl)butyl)phosphonic acid], the Emax in assay [1] (setting [6]) was 132%; in assay [2] (setting [5]), 112%; in assay [4] (Table 2) it was 128%; in assay [3] (Table 2) it was 108%. Further, the EC50 in assay [1] stood at 0.0935 ± 0.0054 µM; in assay [2] (Table 1), 0.00635 ± 0.00167 µM; in assay [4] (Table 2) it was 0.296 ± 0.033 nM; in assay [3] (Table 2), 0.000501 ± 7.6e-05 µM.

Consider `C#CCn1c(=O)c2c(nc(CCc3c(C)cccc3C)n2CC)n(CCCCP(=O)(O)O)c1=O` [B-33, (4-(8-(2,6-Dimethylphenethyl)-7-ethyl-2,6-dioxo-1-(prop-2-yn-1-yl)-1,2,6,7-tetrahydro-3H-purin-3-yl)butyl)phosphonic acid], for which the Emax in assay [4] (Table 3) and in assay [3] (Table 3) was 113% each time. In addition, the results for the concentration for a half-maximal effect (EC50) in assay [4] (Table 3) and in assay [3] (Table 3) were 0.0487 ± 0.0201 nM and 0.000543 ± 0.000186 µM, respectively.

As for `C#CCn1c(=O)c2[nH]c(CCc3cccc(OC)c3)nc2n(CCCCP(=O)(OCC)OCC)c1=O` [C-6, Diethyl (4-(8-(3-methoxyphenethyl)-2,6-dioxo-1-(prop-2-yn-1-yl)-1,2,6,7-tetrahydro-3H-purin-3-yl)butyl)phosphonate], the IC50 in assay [1] and in assay [2] was greater than 10 µM throughout. In addition, the EC50 was greater than 10 µM in assay [1], greater than 10 µM in assay [2] (Table 1) and greater than 10000 nM in assay [4] (Table 2).

In the case of `C#CCn1c(=O)c2[nH]c(CCc3ccc(OC)c(OC)c3)nc2n(CCCCP(=O)(OCC)OCC)c1=O` [C-8, Diethyl (4-(8-(3,4-dimethoxyphenethyl)-2,6-dioxo-1-(prop-2-yn-1-yl)-1,2,6,7-tetrahydro-3H-purin-3-yl)butyl)phosphonate], the IC50 in assay [1] and in assay [2] was greater than 10 µM throughout. For the same molecule, the values for the concentration for a half-maximal effect (EC50) in assay [1], in assay [2] (Table 1) and in assay [4] (Table 2) were greater than 10 µM, greater than 10 µM and greater than 10000 nM, respectively.

For `CCOP(=O)(CCCCn1c(=O)n(CC)c(=O)c2[nH]c(COc3ccccc3)nc21)OCC` [C-10, Diethyl (4-(1-ethyl-2,6-dioxo-8-(phenoxymethyl)-1,2,6,7-tetrahydro-3H-purin-3-yl)butyl)phosphonate], the IC50 in assay [1] and in assay [2] was greater than 10 µM throughout. The EC50 in assay [1] is greater than 10 µM; in assay [2] (Table 1), greater than 10 µM; in assay [4] (Table 2), greater than 10000 nM.

On to `C#CCn1c(=O)c2[nH]c(CCc3ccccc3Br)nc2n(CCCCS(=O)(=O)O)c1=O` [E-1, 4-(8-(2-Bromophenethyl)-2,6-dioxo-1-(prop-2-yn-1-yl)-1,2,6,7-tetrahydro-3H-purin-3-yl)butane-1-sulfonic acid], for which the concentration for half-maximal inhibition (IC50) in assay [1] and in assay [2] was greater than 10 µM throughout. The EC50 in assay [1] was greater than 10 µM; in assay [2] (Table 1), greater than 10 µM; in assay [4] (Table 2) it was greater than 10000 nM.

As for `C#CCn1c(=O)c2[nH]c(CCc3cccc(OC)c3)nc2n(CCCCS(=O)(=O)O)c1=O` [E-3, 4-(8-(3-Methoxyphenethyl)-2,6-dioxo-1-(prop-2-yn-1-yl)-1,2,6,7-tetrahydro-3H-purin-3-yl)butane-1-sulfonic acid], the IC50 in assay [1] and in assay [2] was greater than 10 µM throughout. For the same molecule, the EC50 was greater than 10 µM in assay [1], greater than 10 µM in assay [2] (Table 1) and greater than 10000 nM in assay [4] (Table 2).
